How the values were obtained:
[1] = test system: HepG-2 human hepatoma cell line; experiment: MTT antiproliferative assay, HepG-2; format: cell-based; conditions: for IC50: MTT, 48 h treatment; for SI (selectivity index): SI = IC50, NIH/3T3/IC50, HepG-2
Procedure: (§1) The antiproliferative activity of 1b–12b against three human cancer cell lines (include HepG-2 human hepatoma cell line, Hela human cervical carcinoma cell line and A549 human lung adenocarcinoma cell line) and NIH/3T3 mouse embryonic fibroblast cells were evaluated by the MTT assay (Table 2). […] For Hela cells, the antiproliferative activity of some of the derivatives were similar to that of cis-DDP. […] We selected compound 1b and cis-DDP to generate growth-inhibitory curves (Figure 1) against HepG-2 cells and Hela cells.
(§2) A MTT assay was developed to monitor mammalian cell survival and proliferation in vitro [29]. HepG-2 cells, Hela and A549 cells from the China Center for Type Culture Collection (CCTCC, Wuhan, China) were cultivated in RPMI-1640 medium supplemented with 10% fetal bovine serum (ν/ν), 100 U/mL penicillin, and […] streptomycin. Cells (5 × 10^3 cell/well) at the log phase of their growth cycle were added to each well of a 96-well plate and incubated for 24 h at 37 °C in a humidified atmosphere of 5% CO2. Then, cells were treated with or without test compounds at different concentrations. After 48 h, 5 mg/mL MTT solution (20 μL per well) was added. Cells were incubated at 37 °C. After 4 h, the MTT solution was removed and DMSO was added to each well (150 μL). Eight to twelve minutes later, the optical density (OD) values were measured at room temperature at a wavelength of 595 nm on a FilterMax F3/F5 Microplate Reader (Molecular Devices, Sydney, Australia). In this experiment, 5 mg/mL of cisplatin was used as the positive control and 0.1% DMSO was used as the negative reference. Each assay was carried out at least three times.

[2] = test system: Hela human cervical carcinoma cell line; experiment: MTT antiproliferative assay, Hela; format: cell-based; conditions: 48 h treatment
Procedure: as §1, §2

[3] = test system: A549 human lung adenocarcinoma cell line; experiment: MTT antiproliferative assay, A549; format: cell-based; conditions: 48 h treatment
Procedure: as §1, §2

[4] = test system: NIH/3T3 mouse embryonic fibroblast cells; experiment: MTT cytotoxicity assay, NIH/3T3 normal cells; format: cell-based; conditions: 48 h treatment, read-out: IC50 NIH/3T3 Cell Line
Procedure: as §1, §2

HepG-2 cells [5] = experiment: Plate colony formation (clonogenic survival) assay; format: cell-based, human; conditions: different concentrations of 1b
Procedure: To assess the antiproliferative effect of compound 1b (Figure 2), we analyzed clonogenicity of HepG-2 cells after the treatment with 1b for 48 h.
Additionally, we used plate colony formation assay to evaluate the colony formation ability of HepG-2 cells. The cells were seeded in the complete medium in 6-well plate at 600 cells per well. After attachment, cells were exposed to different concentrations of compound 1b. After 7 days, the cells were fixed with paraformaldehyde for 20 min and stained with 1% crystal violet solution for 30 min to observe colonies.

HepG-2 cells [6] = experiment: Flow cytometric analysis of cell cycle distribution (PI); format: cell-based, human; conditions: 24 h, control 9.97%
Description: Cell cycle arrest is an important sign for inhibition of proliferation and the series of events that take place in a cell leading to its division and replication. […] Compound 1b was chosen for intensive mechanism study on HepG-2 cells because of its highest selectivity index (SI) value of 14.5. After the inhibitory effect of 1b on cell proliferation was observed, we next assessed the effect on the cell cycle distribution of HepG-2 cells by flow cytometry (Figure 3). […] This represented a remarkable difference from 9.97% in the control group (p < 0.05). These findings confirmed that compound 1b could influence HepG-2 cell cycle progression at low micromolar concentrations in a dose-dependent manner.
For flow cytometric analysis of the DNA content, HepG-2 cells (2.0 × 10^5 cells/well) in exponential growth were plated in 6-well plates and incubated for 24 h and then incubated with different concentrations (2.5, 5 and 10 μmol/L) of compound 1b at 37 °C for 24 h. After 24 h treatment, cells were collected, centrifuged, and fixed with ice-cold ethanol (70%) overnight 4 °C. The cells were washed twice with PBS and then treated with lysis buffer containing RNase A (Sigma, St. Louis, MO, USA), which was kept in a lukewarm bath at 37 °C, for 30 min, sequentially, and stained with PI and kept in the dark for 30 min [30]. Then, the samples were analyzed by a flow cytometer (FACSCalibur, BD Accuri^TM C6 BD Instruments Inc., New York, NY, USA). Each experiment was performed in triplicate. DNA histograms were analyzed using Mod Fit (version 3.2) for Windows (Verity Software House, New York, NY, USA).

HepG-2 cells [7] = experiment: Cellular apoptosis by Annexin V-FITC/PI flow cytometry; format: cell-based, human; conditions: 24 h; for total percentage of apoptotic cells (early and late, Q2 + Q3): vehicle 2.921%
Procedure: To examine the potency of the cancer cell apoptosis effect of 1b on HepG-2 cells, the number of apoptotic cells was monitored using flow cytometry. […] The total percentage of apoptotic cells (early and late, Q2 + Q3) was 2.921% when treated with vehicle alone.
HepG-2 cells (2.0 × 10^5 cells/well) were plated in a 6-well plate and allowed to adhere. After 24 h, the medium was replaced with fresh culture medium containing compound 1b at final concentrations of 2.5, 5, and 10 μmol/L at 37 °C. After 24 h, the cells were harvested and staining solution was added (containing 5 μL Annexin V-FITC and 5 μL PI). The cells were then incubated for 15 min at 20–25 °C in the dark. The samples were then detected in a FACScalibur BD Accuri^TM C6 flow cytometer. Analyses were performed by the software supplied with the instrument.

HepG-2 cells [8] = experiment: Western blot analysis of apoptosis-related proteins; format: cell-based, human; conditions: 2.5, 5 and 10 μM, 24 h
Procedure: To explore the mechanisms underlying apoptosis of compound 1b in HepG-2 cells, the characteristics of apoptosis including p53, caspase 3 and PARP cleavage were examined. […] The features of apoptosis appeared to occur in a dose-dependent manner. Furthermore, we measured the effect of 1b on expression of anti-apoptotic protein Bcl-2 and pro-apoptotic protein Bax in HepG-2 cells.
HepG-2 cells (1.0 × 10^6 cells/well) were seeded in six-well plates. After treatment with compound 1b for 24 h, the preparation of total protein samples from the culture cells for immunoblotting was carried out as previously described. For gel electrophoresis (Novex® NuPAGE® SDS-PAG, Thermo, Waltham, MA, USA), 30–50 μg of protein was used per well. Then the proteins were separated by SDS-PAGE and electroblotted to nitrocellulose membrane. The membrane was incubated with the following indicated antibody: Bcl-2, Bax, caspase-3, p53, PARP and β-actin (Cell Signaling Technology, Beverly, MA, USA) for 12 h at 4 °C. The antibodies were used in […] 5% BSA-TBS-T. The blots were washed four times and then incubated with horseradish peroxidase-conjugated secondary antibody (Santa Cruz Biotechnology Laboratories. Santa Cruz, CA, USA) for 1.5 h at room temperature. β-Actin antibody was used for equal loading.

SMILES	IC50 [1]	SI (selectivity index) [1]	IC50 [2]	IC50 [3]	IC50 [4]	clonogenicity / plate colony formation of HepG-2 cells (HepG-2 cells [5])	percentage of cells at the G2/M phase (HepG-2 cells [6]; 2.5 μmol/L)	percentage of cells at the G2/M phase (HepG-2 cells [6]; 5 μmol/L)	percentage of cells at the G2/M phase (HepG-2 cells [6]; 10 μmol/L)	fold percentage of apoptotic cells in comparison with the control group (HepG-2 cells [7]; 2.5 μmol/L)	total percentage of apoptotic cells (early and late, Q2 + Q3) (HepG-2 cells [7]; 2.5 μmol/L)	fold percentage of apoptotic cells in comparison with the control group (HepG-2 cells [7]; 5 μmol/L)	total percentage of apoptotic cells (early and late, Q2 + Q3) (HepG-2 cells [7]; 5 μmol/L)	fold percentage of apoptotic cells in comparison with the control group (HepG-2 cells [7]; 10 μmol/L)	total percentage of apoptotic cells (early and late, Q2 + Q3) (HepG-2 cells [7]; 10 μmol/L)	PARP cleavage (HepG-2 cells [8])	expression of anti-apoptotic protein Bcl-2 (HepG-2 cells [8])	expression of pro-apoptotic protein Bax (HepG-2 cells [8])	level of cleaved caspase-3 (HepG-2 cells [8])	level of p53 (HepG-2 cells [8])
COc1cc(C2CC(c3ccc(F)cc3)=NN2C(N)=S)cc(OC)c1OC (stereo not drawn) [1b]	6.78 ± 1.44 µM	>14.75	7.63 ± 1.35 µM	> 100 µM	> 100 µM	significantly reduced cell viability in a dose-dependent fashion	25.06%	56.15%	71.25%	1.33 fold	3.889%	2.26 fold	6.581%	3.53 fold	10.309%	PARP was cleaved into fragmentation of 89 kDa	decrease in expression	increase in expression	dramatically increased	dramatically increased
CCOc1cc(C2CC(c3ccccc3O)=NN2C(N)=S)cc(Br)c1O (stereo not drawn) [9b, 3-(2-Hydroxyphenyl)-5-(3-ethyoxyl-4-hydroxy-5-bromothiophenyl)-4,5-dihydro-1H-pyrazole-1-carbothioamide]	32.2 ± 2.83 µM	>3.10	7.74 ± 1.63 µM	> 100 µM	> 100 µM															
N.N.[Cl][Pt][Cl] [cis-DDP, cisplatin, reference compound]	7.57 ± 0.98 µM	0.64	5.28 ± 0.66 µM	29.5 ± 3.3 µM	4.88 ± 1.93 µM															

From PMC6151802, “A New Series of Cytotoxic Pyrazoline Derivatives as Potential Anticancer Agents that Induce Cell Cycle Arrest and Apoptosis” (Molecules : A Journal of Synthetic Chemistry and Natural …, 2017)
